Test results reported in patent EP4114474B1, “HEMOSTATIC AGENT” (Industria Farmaceutica Nova Argentia S.r.l., priority 2020, dated 2021).

How the values were obtained:
NIH3T3L6 fibroblasts = test: In vitro cytotoxicity, trypan blue cell viability; format: cell-based, murine
Protocol: The cytotoxic effect was assessed in vitro thanks to the use of murine fibroblasts (NIH3T3L6 fibroblasts from Leibniz-Institute DSMZ-Deutsche Sammlung von Mikroorganismen und Zellkulturen GmbH; Brunswick, Germany) and, once the cells were propagated, we prepared the following experimental groups: • control (NIH3T3L6 cells without any treatment); • iron chloride 5% ([…]); • iron ammonium citrate 5.3% + Rock alum 1.7% ([…] 5.3% + Rock alum 1.7%); • iron ammonium citrate 5.3% ([…] 5.3%); • Rock alum 1.7% ([…]).
The in vitro cytotoxicity analysis thanks to the evaluation of the trypan blue allowed us to obtain the percentage of viable cells in each experimental group.

[1] = Coagulation tests with combinations of ferric and ferrous salts and other potentially coagulating salts (Example 2); conditions: CONC. TEST 5.00% by weight
Protocol: Before reaching the formula object of the invention various other combinations of ferric and ferrous Salts with other potentially coagulating Salts were tested. Below are briefly reported the combinations of Salts tested and the results obtained also in comparison with Ferric Chloride.

## O.O.O.O.O.O.[Cl-].[Cl-].[Cl-].[Fe+3] [Ferric Chloride (FeCl3 · 6H2O)]
NIH3T3L6 fibroblasts; NIH3T3L6 cells incubated 30" with 100µL
  cytotoxic effect (cell death, percentage of viable cells by trypan blue): significant cell death
NIH3T3L6 fibroblasts; incubation of murine fibroblasts for a time greater than 45"-50"
  cell death: complete cell death
[1]
  RESULTS (coagulation): coagulates
